According to patent US11279733B2, “Peptide antibiotics” (priority 2017, dated 2022):
≈ marks a conversion by molar mass, not a printed value. Read-outs that look alike come from different tables or passages of the source. Positions of bridges follow the written chain, without caps; N, C: chain ends. Non-standard residues stand in square brackets, D forms with d. Residues, ends and D or L forms follow the SMILES beside them. *: point of attachment. Benzoyl(4-OPh) = O=C(c1ccc(Oc2ccccc2)cc1)*; Decanoyl(3R-OH) = CCCCCCC[C@@H](O)CC(=O)*; dBip = N[C@H](Cc1ccc(-c2ccccc2)cc1)C(=O)O; X4 = CCCCCOc1ccc(C(=O)*)cc1; dDab = NCC[C@@H](N)C(=O)O; X8 = CC(C)CCCC(C)CC(=O)*; Dab = NCC[C@H](N)C(=O)O

Tests used:
[1] = tested on: K. pneumoniae GN_106, PmxR; settings: GN 106, PmxR
Protocol: (§1) Bacteria were either obtained from American Type Culture Collection (ATCC; Manassas, Va., USA) or independent academic clinical isolate collections, as listed in Table 18 below. Bacteria were cultured in Nutrient broth (NB; Bacto Laboratories, catalogue No. 234000) or Mueller Hinton broth (MHB; Bacto Laboratories, catalogue No. 211443) at 37° C. overnight with shaking (˜180 RPM). A sample of each culture was then diluted 50-fold in fresh MHB and incubated at 37° C. for 2-3 h with shaking (˜180 RPM). Compound stock solutions were prepared as 0.64 mg/mL or 2.56 mg/mL in water. The compounds, at twice the final desired concentration, were serially diluted 2-fold across the wells of 96-well plates (Polystyrene, Corning, catalogue No. 3370). Mid-log phase bacterial cultures (after 2-3 h incubation) were diluted to a final concentration of 1×10^6 colony forming units (CFU)/mL, and 50 μL was added to each well giving a final cell density of 5×10^5 and a compound concentration range of 32 μg/mL to 0.015 μg/mL (128-0.06 μg/mL against P. aeruginosa PA9704).

[2] = tested on: A. baumannii GN_093 PmxR; settings: GN 093 PmxR
Protocol: as §1

[3] = tested on: S. aureus ATCC 25923, MSSA; settings: ATCC 25923
Protocol: as §1

[4] = tested on: K. pneumoniae GN_102 PmxR; settings: GN 102 PmxR
Protocol: as §1

[5] = tested on: P. aeruginosa GN_043, PmxR
Protocol: as §1

[6] = tested on: P. aeruginosa GN_105, PmxR; settings: GN 105, PmxR
Protocol: as §1

[7] = tested on: K. pneumoniae ATCC 13883; settings: ATCC 13883
Protocol: as §1

[8] = tested on: K. pneumoniae ATCC 700603, MDR; settings: ATCC 700603
Protocol: as §1

[9] = tested on: P. aeruginosa ATCC 27853; settings: ATCC 27853
Protocol: as §1

[10] = tested on: A. baumannii ATCC 19606; settings: ATCC 19606
Protocol: as §1

[11] = tested on: E. coli ATCC 25922; settings: ATCC 25922
Protocol: as §1

[12] = tested on: K. pneumoniae ATCC BAA-2146, NDM-1 pos; settings: ATCC BAA-2146
Protocol: as §1

| Compound | MIC K. pneumoniae GN_106, PmxR [1] [µg/mL] | MIC A. baumannii GN_093 PmxR [2] [µg/mL] | MIC S. aureus ATCC 25923, MSSA [3] [µg/mL] | MIC K. pneumoniae GN_102 PmxR [4] [µg/mL] | MIC P. aeruginosa GN_043, PmxR [5] [µg/mL] | MIC P. aeruginosa GN_105, PmxR [6] [µg/mL] | MIC K. pneumoniae ATCC 13883 [7] [µg/mL] | MIC K. pneumoniae ATCC 700603, MDR [8] [µg/mL] | MIC P. aeruginosa ATCC 27853 [9] [µg/mL] | MIC A. baumannii ATCC 19606 [10] [µg/mL] | MIC E. coli ATCC 25922 [11] [µg/mL] | MIC K. pneumoniae ATCC BAA-2146, NDM-1 pos [12] [µg/mL] | MIC P. aeruginosa GN_043, PmxR ([5]; P. aeruginosa GN_043, PmxR) [µg/mL] |
| --- | --- | --- | --- | --- | --- | --- | --- | --- | --- | --- | --- | --- | --- |
| CC(C)CCCC(C)CC(=O)N[C@H](CCN)C(=O)N[C@H]1CCNC(=O)[C@H](CC(C)C)NC(=O)[C@H](CCN)NC(=O)[C@H](CCN)NC(=O)[C@H](CC(C)C)NC(=O)[C@@H](Cc2ccccc2)NC(=O)[C@H](CCN)NC1=O (stereo partly drawn) [compound 6523, 3,7-dimethyloctanoic acid-D-Dab-cyc[L-Dab-L-Dab-D-Phe-L-Leu-L-Dab-L-Dab-L-Leu]] (X8-[dDab][Dab][Dab][dF]L[Dab][Dab]L; lactam 2-C) | 32 (≈ 31.1 µM) | 16 (≈ 15.6 µM) | 32 (≈ 31.1 µM) | 16 (≈ 15.6 µM) | 2 (≈ 1.94 µM) | 2 (≈ 1.94 µM) | 4 (≈ 3.89 µM) | 8 (≈ 7.78 µM) | 2 (≈ 1.94 µM) | >32 | 1 (≈ 0.972 µM) | 8 (≈ 7.78 µM) |  |
| CC(C)C[C@@H]1NC(=O)[C@H](CCN)NC(=O)[C@H](CCN)NC(=O)[C@H](CC(C)C)NC(=O)[C@@H](Cc2ccccc2)NC(=O)[C@H](CCN)NC(=O)[C@@H](NC(=O)[C@@H](CCN)NC(=O)c2ccc(Oc3ccccc3)cc2)CCNC1=O [compound 6527, Ph-4-OPhCO-D-Dab-cyc[L-Dab-L-Dab-D-Phe-L-Leu-L-Dab-L-Dab-L-Leu]] ({Benzoyl(4-OPh)}-[dDab][Dab][Dab][dF]L[Dab][Dab]L; lactam 2-C) | >32 | >32 | >32 | 32 (≈ 29.9 µM) | 1 (≈ 0.934 µM) | 4 (≈ 3.74 µM) | 16 (≈ 14.9 µM) | 16 (≈ 14.9 µM) | 2 (≈ 1.87 µM) | >32 | 2 (≈ 1.87 µM) | 16 (≈ 14.9 µM) |  |
| CCCCCOc1ccc(C(=O)N[C@H](CCN)C(=O)N[C@H]2CCNC(=O)[C@H](CC(C)C)NC(=O)[C@H](CCN)NC(=O)[C@H](CCN)NC(=O)[C@H](CC(C)C)NC(=O)[C@@H](Cc3ccccc3)NC(=O)[C@H](CCN)NC2=O)cc1 [compound 6528, 4-(pentyloxy)benzoic acid-D-Dab-cyc[L-Dab-L-Dab-D-Phe-L-Leu-L-Dab-L-Dab-L-Leu]] (X4-[dDab][Dab][Dab][dF]L[Dab][Dab]L; lactam 2-C) | 32 (≈ 30.1 µM) | 32 (≈ 30.1 µM) | 32 (≈ 30.1 µM) | >32 | 1 (≈ 0.94 µM) | 4 (≈ 3.76 µM) | 8 (≈ 7.52 µM) | 16 (≈ 15 µM) | 1 (≈ 0.94 µM) | >32 | 2 (≈ 1.88 µM) | 8 (≈ 7.52 µM) |  |
| CCCCCCC[C@@H](O)CC(=O)N[C@@H](CCN)C(=O)N[C@@H]1CCNC(=O)[C@H](CC(C)C)NC(=O)[C@H](CCN)NC(=O)[C@H](CCN)NC(=O)[C@H](CC(C)C)NC(=O)[C@@H](Cc2ccc(-c3ccccc3)cc2)NC(=O)[C@H](CCN)NC1=O [compound 6661, 3(R)OH-nC9CO-L-Dab-cyc[D-Dab-L-Dab-D-Bip-L-Leu-L-Dab-L-Dab-L-Leu]] ({Decanoyl(3R-OH)}-[Dab][dDab][Dab][dBip]L[Dab][Dab]L; lactam 2-C) | >32 | >32 | 8 (≈ 7.14 µM) | >32 |  | 8 (≈ 7.14 µM) | 32 (≈ 28.6 µM) | 32 (≈ 28.6 µM) | 8 (≈ 7.14 µM) | >32 | 32 (≈ 28.6 µM) | 32 (≈ 28.6 µM) | >32 |
